This is an account of results in patent publication US8143270B2, “2-amino 1H-in-imidazo ring systems and methods” (3M Innovative Properties Company, priority 2004, dated 2012).

Where a name gives a salt, the structure may show the parent alone.

Tested on in the first data set: not given
Assay: not given
Conditions: not given
By melting point is commonly meant the temperature of the solid-liquid transition. In turn, `CC(C)(O)Cn1c(N)nc2c(N)nc3ccccc3c21` (as salt: hydrobromid) [Example 2, 1-(2,4-Diamino-1H-imidazo[4,5-c]quinolin-1-yl)-2-methylpropan-2-ol hydrobromide] registered a melting point of more than 230 °C.
Regarding `CC(C)Cn1c(N)nc2c(N)nc3ccccc3c21` [Example 1, 1-(2-Methylpropyl)-1H-imidazo[4,5-c]quinoline-2,4-diamine], the melting point is more than 250 °C.
For the molecule `CC(C)(Cn1c(N)nc2c(N)nc3ccccc3c21)NS(C)(=O)=O` [Example 3, N-[2-(2,4-Diamino-1H-imidazo[4,5-c]quinolin-1-yl)-1,1-dimethylethyl]methanesulfonamide], the melting point was more than 230 °C.
In turn, `Nc1nc2ccccc2c2c1nc(N)n2Cc1ccccc1` [Example 4, 1-Benzyl-1H-imidazo[4,5-c]quinoline-2,4-diamine] displayed a melting point of 254 to 256 °C.
In turn, `CCNc1nc2c(N)nc3ccccc3c2n1CC(C)C` [Example 6, N^2-Ethyl-1-(2-methylpropyl)-1H-imidazo[4,5-c]quinoline-2,4-diamine] gave a melting point of 188 to 190 °C.
Regarding `CCNc1nc2c(N)nc3ccccc3c2n1CC(C)(C)O` [Example 7, 1-[4-Amino-2-(ethylamino)-1H-imidazo[4,5-c]quinolin-1-yl]-2-methylpropan-2-ol], the melting point was 233 to 235 °C.
Molecule `COCCNc1nc2c(N)nc3ccccc3c2n1CC(C)(C)O` [Example 8, 1-{4-Amino-2-[(2-methoxyethyl)amino]-1H-imidazo[4,5-c]quinolin-1-yl}-2-methylpropan-2-ol] yielded a melting point of 176 to 178 °C.
The same measure, in the same setting: the value for `COCCCNc1nc2c(N)nc3ccccc3c2n1CC(C)(C)O` [Example 9, 1-{4-Amino-2-[(3-methoxypropyl)amino]-1H-imidazo[4,5-c]quinolin-1-yl}-2-methylpropan-2-ol] was 209 to 210 °C; that for `CCNc1nc2c(N)nc(C)c(C)c2n1CC(C)C` [Example 16, N^2-Ethyl-6,7-dimethyl-1-(2-methylpropyl)-1H-imidazo[4,5-c]pyridine-2,4-diamine] was 168 to 170 °C; that for `CC(C)(O)Cn1c(N)nc2c(N)nc3c(c21)CCCC3` [Example 18, 1-(2,4-Diamino-6,7,8,9-tetrahydro-1H-imidazo[4,5-c]quinolin-1-yl)-2-methylpropan-2-ol] was more than 270 °C.
Still for that read-out and setting: the value for `CC(C)(F)Cn1c(N)nc2c(N)nc3ccccc3c21` [Example 43, 1-(2-Fluoro-2-methylpropyl)-1H-imidazo[4,5-c]quinoline-2,4-diamine] was 251 °C.
`C[C@H](c1ccccc1)n1c(N)nc2c(N)nc3ccccc3c21` [Example 44, 1-[(1R)-1-Phenylethyl]-1H-imidazo[4,5-c]quinoline-2,4-diamine] had a melting point of 156 to 160 °C.
On to `C[C@@H](c1ccccc1)n1c(N)nc2c(N)nc3ccccc3c21` [Example 45, 1-[(1S)-1-Phenylethyl]-1H-imidazo[4,5-c]quinoline-2,4-diamine], for which the melting point fell in the range of 135 to 140 °C.
`Nc1nc2ccccc2c2c1nc(N)n2CC1(O)CCC1` [Example 46, 1-[(2,4-Diamino-1H-imidazo[4,5-c]quinolin-1-yl)methyl]cyclobutanol]: the melting point was 295 °C (dec.).
On the same count and under the same terms, in the case of `COC(=O)Nc1nc2c(N)nc3ccccc3c2n1CC(C)(C)O` [Example 181, Methyl [4-amino-1-(2-hydroxy-2-methylpropyl)-1H-imidazo[4,5-c]quinolin-2-yl]carbamate] it was 255 to 258 °C (dec.).

The test system of another data set is mouse macrophage cell line Raw 264.7. In words: TNF-α inhibition in mouse cells. Type of data set: cell-based. The note with it: Raw 264.7 cells stimulated by lipopolysaccharide (LPS); single concentration 5 μM or dose response 0.03-10 μM; TNF-α by ELISA. Here is the method: The compounds of Formulas I, II, III, IV, V, VI, VII, and VIII are useful as immune response modifiers (IRMs) due to their ability to modulate cytokine biosynthesis (e.g., induce or inhibit the biosynthesis or production of one or more cytokines) and otherwise modulate the immune response when administered to animals. Compounds can be tested per the test procedures described in the Examples Section. Compounds can be tested for induction of cytokine biosynthesis by incubating human peripheral blood mononuclear cells (PBMC) in a culture with the compound(s) at a concentration range of 30 to 0.014 μM and analyzing for interferon (α) or tumor necrosis factor (α) in the culture supernatant. Compounds can be tested for inhibition of cytokine biosynthesis by incubating mouse macrophage cell line Raw 264.7 in a culture with the compound(s) at a single concentration of, for example, 5 μM and analyzing for tumor necrosis factor (α) in the culture supernatant. The ability to modulate cytokine biosynthesis, for example, induce the biosynthesis of one or more cytokines, makes the compounds useful in the treatment of a variety of conditions such as viral diseases and neoplastic diseases, that are responsive to such changes in the immune response. […]
(§1) Raw cells (ATCC) are harvested by gentle scraping and then counted. […]
The compounds are solubilized in dimethyl sulfoxide (DMSO). […] LPS (Lipopolysaccaride from Salmonella typhimurium, Sigma-Aldrich) is diluted with colorless RPMI to the EC70 concentration as measured by a dose response assay. […]
Following the incubation the supernatant is removed with a pipet. TNF-α concentration is determined by ELISA using a mouse TNF-α kit (from Biosource International, Camarillo, Calif.). […]
as §1
The compounds are solubilized in dimethyl sulfoxide (DMSO). […] LPS (Lipopolysaccaride from Salmonella typhimurium, Sigma-Aldrich) is diluted with colorless RPMI to the EC70 concentration as measured by dose response assay. […]
`CCNc1nc2c(N)nc3ccccc3c2n1CC(C)(C)O` [Example 7, 1-[4-Amino-2-(ethylamino)-1H-imidazo[4,5-c]quinolin-1-yl]-2-methylpropan-2-ol]: the “inhibition of production of tumor necrosis factor α (TNF-α)” value (shortened to “inhibition”) is “inhibiting production of tumor necrosis factor α (TNF-α)”.
As for `COCCNc1nc2c(N)nc3ccccc3c2n1CC(C)(C)O` [Example 8, 1-{4-Amino-2-[(2-methoxyethyl)amino]-1H-imidazo[4,5-c]quinolin-1-yl}-2-methylpropan-2-ol], the “inhibition” value was “inhibiting production of tumor necrosis factor α (TNF-α)”.
For the molecule `COCCCNc1nc2c(N)nc3ccccc3c2n1CC(C)(C)O` [Example 9, 1-{4-Amino-2-[(3-methoxypropyl)amino]-1H-imidazo[4,5-c]quinolin-1-yl}-2-methylpropan-2-ol], the “inhibition” value is reported as “inhibiting production of tumor necrosis factor α (TNF-α)”.
